Data published in US20150203517A1, “Prodrugs of Compounds that Enhance Antifungal Activity and Compositions of Said Prodrugs” (priority 2014, published 2015).
Where a name gives a salt, the structure may show the parent alone. Read-outs that look alike come from different tables or passages of the source.

Experiment: Saline solubility at 1.00 mg/mL and 0.50 mg/mL (with pH by indicator paper)
Type: physicochemical
Conditions: for solubility at 1 h: saline or isotonic, thermodynamic from solid, centrifuged, soluble = no precipitate formed; for pH at 1.00 mg/mL of MGCD290 in saline: final concentration of hydroxamate 1 1.00 mg/mL, pH indicator paper
Experimental: Assays were performed to determine the saline solubility at 1.00 and 0.50 mg/ml and the stability of certain of the prodrug compounds of Examples 1-111. The following procedures were used.
Step 1. Sample preparation. An amount of the compound sample was precisely weighed to correspond to around 5 mg of the hydroxamate of compound 1, taking into account the mass of the leaving group and the salt factor if applicable. The sample was placed in a 16×125 mm glass screw cap tube. Saline was added so that the final concentration of hydroxamate 1 was 1.00 mg/mL. The pH was measured with pH indicator paper. The tube was shaken for 1 hour on a Vortex apparatus then centrifuged at 3000 rpm (1800 rcf) for 5 minutes. If the compound example was soluble (no precipitate formed) the procedure continued to step 2. If a precipitate formed then the sample was diluted with saline so that the final concentration of the hydroxamate of compound 1 was 0.50 mg/mL, and the shaking and centrifuging steps were repeated. If the compound example was soluble (no precipitate formed) the procedure continued to step 2. If a precipitate formed the sample was discarded. Step 2. HPLC analysis. A 500 μL aliquot of a sample solution prepared according to Step 1 was taken up into a 1.5 mL injection vial to which was added 500 μL of saline. The vial was shaken on a Vortex apparatus, injected into the HPLC instrument (UV detection, zero time point) and the retention time and purity of the sample compound were determined. The injection was repeated after 6 hours and 24 hours, and a comparison was made of the retention time, peak areas and level of degradation (if any) using the GDADI50 method.

[1] = 0.50 mg/mL as hydroxamate 1, shaken 1 hour, read-out: Soluble at 0.5 mg/mL of MGCD290 (Y/N)
[2] = 1.00 mg/mL as hydroxamate 1, shaken 1 hour, read-out: Soluble at 1.00 mg/mL of MGCD290 (Y/N)

Compound: NCCCCCCCC(=O)ONC(=O)Cc1ccc(CCCCc2ccccc2)cc1 [Compound 7, N-(8-aminooctanoyloxy)-2-(4-(4-phenylbutyl)phenyl)acetamide hydrochloride]
- solubility at 1 h [1]: < 500 µg/mL
- solubility at 1 h [2]: < 1000 µg/mL

Compound: CN1CCN(C(=O)ONC(=O)Cc2ccc(CCCCc3ccccc3)cc2)CC1.Cl [Compound 45]
- pH at 1.00 mg/mL of MGCD290 in saline: 4-4.5
- solubility at 1 h [1]: < 500 µg/mL
- solubility at 1 h [2]: < 1000 µg/mL

Compound: CCCC(CCC)C(=O)ONC(=O)Cc1ccc(CCCCc2ccccc2)cc1 [Compound 50, 2-(4-(4-Phenylbutyl)phenyl)-N-(2-propylpentanoyloxyl)acetamide]
- solubility at 1 h [1]: < 500 µg/mL
- solubility at 1 h [2]: < 1000 µg/mL

Compound: O=C(Cc1ccc(CCCCc2ccccc2)cc1)NOC(=O)CCC1CCCC1 [Compound 51]
- solubility at 1 h [1]: < 500 µg/mL
- solubility at 1 h [2]: < 1000 µg/mL

Compound: O=C(Cc1ccc(CCCCc2ccccc2)cc1)NOC(=O)CN1C(=O)OC[C@@H]1c1ccccc1 [Compound 52A]
- pH at 1.00 mg/mL of MGCD290 in saline: 4.5-5
- solubility at 1 h [1]: < 500 µg/mL
- solubility at 1 h [2]: < 1000 µg/mL

Compound: COCCC(=O)ONC(=O)Cc1ccc(CCCCc2ccccc2)cc1 [Compound 52B]
- solubility at 1 h [1]: < 500 µg/mL
- solubility at 1 h [2]: < 1000 µg/mL

Compound: O=C(Cc1ccc(CCCCc2ccccc2)cc1)NOC(=O)CC1CC1 [Compound 52C]
- solubility at 1 h [1]: < 500 µg/mL
- solubility at 1 h [2]: < 1000 µg/mL

Compound: CC(=O)ONC(=O)Cc1ccc(CCCCc2ccccc2)cc1 [Compound 52D]
- solubility at 1 h [1]: < 500 µg/mL
- solubility at 1 h [2]: < 1000 µg/mL

Compound: CCC(=O)ONC(=O)Cc1ccc(CCCCc2ccccc2)cc1 [Compound 52E]
- solubility at 1 h [1]: < 500 µg/mL
- solubility at 1 h [2]: < 1000 µg/mL

Compound: O=C(Cc1ccc(CCCCc2ccccc2)cc1)NOC(=O)CCC1CCCCC1 [Compound 52]
- solubility at 1 h [1]: < 500 µg/mL
- solubility at 1 h [2]: < 1000 µg/mL

Compound: COC(=O)NCC1(C(=O)ONC(=O)Cc2ccc(CCCCc3ccccc3)cc2)CC1 [Compound 53]
- pH at 1.00 mg/mL of MGCD290 in saline: 4.5-5
- solubility at 1 h [1]: < 500 µg/mL
- solubility at 1 h [2]: < 1000 µg/mL

Compound: COCCOCCOCC(=O)NCC1(C(=O)ONC(=O)Cc2ccc(CCCCc3ccccc3)cc2)CC1 [Compound 55, 2-(2-(2-Methoxyethoxyl)ethoxy)-N-((1-((2-(4-(4-phenylbutyl)phenyl)acetamidooxy)carbonyl)cyclopropyl)methyl)acetamide]
- solubility at 1 h [1]: < 500 µg/mL
- solubility at 1 h [2]: < 1000 µg/mL

Compound: COCCOCCOCCOCCOCC(=O)NCC1(C(=O)ONC(=O)Cc2ccc(CCCCc3ccccc3)cc2)CC1 [Compound 56]
- pH at 1.00 mg/mL of MGCD290 in saline: 4.5-5
- solubility at 1 h [1]: < 500 µg/mL
- solubility at 1 h [2]: < 1000 µg/mL

Compound: COCCOCCOCCOCCOCCOCC(=O)NCC1(C(=O)ONC(=O)Cc2ccc(CCCCc3ccccc3)cc2)CC1 [Compound 57]
- pH at 1.00 mg/mL of MGCD290 in saline: 4.5-5
- solubility at 1 h [1]: < 500 µg/mL
- solubility at 1 h [2]: < 1000 µg/mL

Compound: COCCOCCOCC(=O)NCCC(=O)ONC(=O)Cc1ccc(CCCCc2ccccc2)cc1 [Compound 60]
- pH at 1.00 mg/mL of MGCD290 in saline: 4.5-5
- solubility at 1 h [1]: < 500 µg/mL
- solubility at 1 h [2]: < 1000 µg/mL

Compound: COCCOCCOCCOCCOCC(=O)NCCC(=O)ONC(=O)Cc1ccc(CCCCc2ccccc2)cc1 [Compound 61]
- pH at 1.00 mg/mL of MGCD290 in saline: 4.5-5
- solubility at 1 h [1]: < 500 µg/mL
- solubility at 1 h [2]: < 1000 µg/mL

Compound: COCCOCCOCCOCCOCCOCC(=O)NCCC(=O)ONC(=O)Cc1ccc(CCCCc2ccccc2)cc1 [Compound 62]
- pH at 1.00 mg/mL of MGCD290 in saline: 4.5-5
- solubility at 1 h [1]: < 500 µg/mL
- solubility at 1 h [2]: < 1000 µg/mL

Compound: CC(=O)NCCCC[C@H](NC(C)=O)C(=O)NCCC(=O)ONC(=O)Cc1ccc(CCCCc2ccccc2)cc1 [Compound 66]
- pH at 1.00 mg/mL of MGCD290 in saline: 4.5-5
- solubility at 1 h [1]: < 500 µg/mL
- solubility at 1 h [2]: < 1000 µg/mL

Compound: COCC(=O)NCCCC[C@H](NC(=O)COC)C(=O)NCCC(=O)ONC(=O)Cc1ccc(CCCCc2ccccc2)cc1 [Compound 67]
- pH at 1.00 mg/mL of MGCD290 in saline: 4.5-5
- solubility at 1 h [1]: < 500 µg/mL
- solubility at 1 h [2]: < 1000 µg/mL

Compound: COCCOCCOCCOCCOCC(=O)NCCCC[C@H](NC(=O)COCCOCCOCCOCCOC)C(=O)NCCC(=O)ONC(=O)Cc1ccc(CCCCc2ccccc2)cc1 [Compound 69]
- pH at 1.00 mg/mL of MGCD290 in saline: 4.5-5
- solubility at 1 h [2]: > 1000 µg/mL

Compound: COCCOCC(=O)NCCCC[C@H](NC(=O)COCCOC)C(=O)ONC(=O)Cc1ccc(CCCCc2ccccc2)cc1 [Compound 70]
- pH at 1.00 mg/mL of MGCD290 in saline: 4.5-5
- solubility at 1 h [1]: < 500 µg/mL
- solubility at 1 h [2]: < 1000 µg/mL

Compound: COCCOCCOCC(=O)NCCCC[C@H](NC(=O)COCCOCCOC)C(=O)ONC(=O)Cc1ccc(CCCCc2ccccc2)cc1 [Compound 71]
- pH at 1.00 mg/mL of MGCD290 in saline: 4.5-5
- solubility at 1 h [1]: < 500 µg/mL
- solubility at 1 h [2]: < 1000 µg/mL

Compound: CC(C)NC(=O)ONC(=O)Cc1ccc(CCCCc2ccccc2)cc1 [Compound 73, N-(Isopropylcarbamoyloxy)-2-(4-(4-phenylbutyl)phenyl)acetamide]
- pH at 1.00 mg/mL of MGCD290 in saline: 4.5-5
- solubility at 1 h [1]: < 500 µg/mL
- solubility at 1 h [2]: < 1000 µg/mL

Compound: CCNC(=O)ONC(=O)Cc1ccc(CCCCc2ccccc2)cc1 [Compound 74]
- pH at 1.00 mg/mL of MGCD290 in saline: 4.5-5
- solubility at 1 h [1]: < 500 µg/mL
- solubility at 1 h [2]: < 1000 µg/mL

Compound: CCOC(=O)CNC(=O)ONC(=O)Cc1ccc(CCCCc2ccccc2)cc1 [Compound 75]
- pH at 1.00 mg/mL of MGCD290 in saline: 4.5-5
- solubility at 1 h [1]: < 500 µg/mL
- solubility at 1 h [2]: < 1000 µg/mL

Compound: CC(C)OC(=O)ONC(=O)Cc1ccc(CCCCc2ccccc2)cc1 [Compound 76, N-(isopropoxycarbonyloxy)-2-(4-(4-phenylbutyl)phenyl)acetamide]
- pH at 1.00 mg/mL of MGCD290 in saline: 4.5-5
- solubility at 1 h [1]: < 500 µg/mL
- solubility at 1 h [2]: < 1000 µg/mL

Compound: COCCOCCOCCNC(=O)NCCC(=O)NCC1(C(=O)ONC(=O)Cc2ccc(CCCCc3ccccc3)cc2)CC1 [Compound 79, N-1-(2-(2-(2-Methoxyethoxyl)ethoxy)ethyl)-N-3-(2-(1-((2-(4-(4-phenylbutyl)phenyl)acetamidooxy)carbonylcyclopropyl)methyl)carbamoylethyl)urea]
- pH at 1.00 mg/mL of MGCD290 in saline: 4.5-5
- solubility at 1 h [1]: < 500 µg/mL
- solubility at 1 h [2]: < 1000 µg/mL

Compound: COCCOCCOCCOCCOCC(=O)N1CCN(C(=O)ONC(=O)Cc2ccc(CCCCc3ccccc3)cc2)CC1 [Compound 81]
- pH at 1.00 mg/mL of MGCD290 in saline: 4.5-5
- solubility at 1 h [2]: > 1000 µg/mL

Compound: COCCOCCOCCOCCOCCOCC(=O)N1CCN(C(=O)ONC(=O)Cc2ccc(CCCCc3ccccc3)cc2)CC1 [Compound 82]
- pH at 1.00 mg/mL of MGCD290 in saline: 4.5-5
- solubility at 1 h [2]: > 1000 µg/mL

Compound: O=C1COCCOCC(=O)N[C@H](C(=O)NCCC(=O)ONC(=O)Cc2ccc(CCCCc3ccccc3)cc2)CCCCN1 [Compound 83, (S)-6,14-Dioxo-N-(3-oxo-3-(2-(4-(4-phenylbutyl)phenyl)acetamidooxy)propyl)-1,4-dioxa-7,13-diazacyclopentadecane-8-carboxamide]
- pH at 1.00 mg/mL of MGCD290 in saline: 4.5-5
- solubility at 1 h [1]: < 500 µg/mL
- solubility at 1 h [2]: < 1000 µg/mL

Compound: O=C1COCCOCCOCC(=O)N[C@H](C(=O)NCCC(=O)ONC(=O)Cc2ccc(CCCCc3ccccc3)cc2)CCCCN1 [Compound 84]
- pH at 1.00 mg/mL of MGCD290 in saline: 4.5-5
- solubility at 1 h [1]: < 500 µg/mL
- solubility at 1 h [2]: < 1000 µg/mL

Compound: COCCOCCOCCOCCOCC(=O)NC[C@H](C)C(=O)ONC(=O)Cc1ccc(CCCCc2ccccc2)cc1 [Compound 87, (S)—N-(2-Methyl-3-oxo-3-(2-(4-(4-phenylbutyl)phenyl)acetamidooxy)propyl)-2,5,8,11,14-pentaoxahexadecan-16-amide]
- pH at 1.00 mg/mL of MGCD290 in saline: 4.5-5
- solubility at 1 h [1]: < 500 µg/mL
- solubility at 1 h [2]: < 1000 µg/mL
